Key:
[1] = system: human peripheral blood monocytes (MPs); experiment: Mononuclear phagocyte migration in microchemotaxis chambers; format: cell-based
Protocol: Assessment of mononuclear phagocyte (mononuclears) and polymorphonuclear leukocyte (PMN) migration. Human peripheral blood monocytes were isolated from the blood of normal healthy volunteers (30). Blood was centrifuged on Hisopaque 1077 (Sigma, St. Louis, Mo.), the mononuclear fraction was obtained, washed twice in Earle's balanced salt solution, resuspended in RPMI 1640 containing human serum (10%; Gemini, Calabasas, Calif.), plated on tissue culture dishes and incubated at 37° C. for 1-2 hrs. Nonadherent cells were removed by washing the plate twice with balanced salt solution, and adherent cells were harvested by incubation with calcium-magnesium free buffer containing EDTA (2 mM) for 15 min at 37° C., followed by extensive washing. PMNs were prepared by centrifugation over Hisopaque 1119 as per the manufacturer's protocol (Sigma). Chemotaxis assays were performed in microchemotaxis chamber (NeuroProbe, Bethesda, Md.) containing Nucleopore polycarbonate membranes (5 μm; Nucleopore, Pleasonton, Calif.). Mononuclears or PMNs were suspended in RPMI 1640 containing fetal bovine serum (1%) and 10^4 cells were added per well to the upper chamber. The chemotactic stimulus was added to the indicated chamber, and assays were performed in quadruplicate over a 3 hr or 45 min incubation period at 37° C., with mononuclear cells or PMNs, respectively, after which non-migrating cells were removed, membranes were fixed in methanol, migrating cells were visualized with Wright's stain. Cells in nine high-power fields were counted, and the mean and standard error of the mean (SEM) were determined.
Cell migration was studied by adding MPs or PMNs (10^4 cells/well) resuspended in RPMI 1640 with fetal calf serum (1%; Gemini) to the upper wells of a microchemotaxis chamber (Neuro Probe, Bethesda, Md.) containing Nucleopore polycarbonate membranes (5 μm, Nucleopore, Pleasanton Calif.), as described (7,29-30). The chemotactic stimulus was placed in the upper or lower chamber, as indicated, and cells were allowed to migrate for 3 hrs (for MPs) or 45 min (for PMNs) at 37° C. Following removal of non-migrating cells, membranes were fixed in methanol and migrating cells were visualized with Wright's stain. Assays were performed in quadruplicate, and cells were counted in nine high-power fields in each case (mean±SEM is shown in the figures).
Migration of PMNs and MPs—Migration was studied using cells (10^4 and 10^3 cells/well form PMNs and MPs, respectively) resuspended in RPMI 1640 with fetal calf serum (1%) added to the upper wells of a microchemotaxis chamber (Neuro Probe, Bethesda, Md.) containing Nucleopore polycarbonate membranes (5 um, Nucleopor, Pleasanton, Calif.), as described (13, 22, 35). The stimulus was placed in the upper or lower chamber, as indicated, and the cells were allowed to migrate for 3 h (for MPs) or 45 min (for PMNs) at 37° C. Following removal of nonmigrating cells, membranes were fixed in methanol, and migrating cells were visualized with Wright's stain. Assays were performed in quadruplicate, and cells were counted in […] high-power fields in each case (mean±S.E. is shown in the figures).

human PMNs = experiment: Release of peroxidase generating activity (myeloperoxidase) from PMNs; format: cell-based; settings: 60 min at 37° C.
Protocol: Release of peroxidase generating activity from PMNs (myeloperoxidase) was determined by oxidation of the peroxidase substrate 3,3′,5,5′-tetramethylbenzidine (TMB; Sigma), monitored at 620 nm, as described (35). In brief, PMNs (3×10^6 cells/ml; 0.05 ml) were incubated for 60 min at 37° C. with RPMI 1640 containing fetal calf serum (1%) alone or in the presence of phorbol ester (phorbol 12-myristate 13-acetate; Sigma) or EMAP II-derived peptides. TMP and hydrogen peroxide were added for 1 min at room temperature, and the reaction was stopped with sodium azide and acetic acid. Peroxidase activity, assessed by oxidation of TMB, was determined spectrophotometrically and is reported as percent total peroxidase activity (100% is the activity observed with that number of PMNs following 60 min exposure to phorbol ester, 10 μM). A standard curve was generated by assaying peroxidase activity from different numbers of PMNs treated with phorbol ester (10 μM) under these conditions, and peroxidase activity of PMN/EMAP II peptide incubation mixtures was determined by comparison with the linear portion of the standard curve (35).
Release of Peroxidase Generating Activity from PMNs (myeloperoxidase)—Release was determined by a previously described assay (36) which monitors oxidation of the substrate 3,3′,5,5′-tetramethylbenzidine (TMB; Sigma). […]

human MPs = experiment: Radioligand binding of 125I-[…] to MPs; settings: excess / increasing concentrations of unlabelled competitor
Protocol: Radioligand binding studies were performed on human MPs plated in 96-well plates (5-6×10^4 cells/well). Cells were washed twice with Hanks balanced salt solution, and then Dulbecco's Modified Eagle Medium containing HEPES (25 mM; pH 7.4), penicillin/streptomycin (50 U/ml; 50 μg/ml), and bovine serum albumin-fatty acid free (0.5%; Sigma) were added (0.1 ml/well). Cultures were incubated at 4° C. for 2 hrs with ^125I-[…] alone or in the presence of unlabelled peptide/protein. Each well was washed four times over a period of 20 sec, and cell-associated radioactivity was eluted by an acidic buffer (HCl, 0.1 M, pH 2; NaCl, 0.1 M) at 4° C. for 5 min. During the elution period, there was no detachment of cells from the growth substrate. The conditions for incubation and washing used in the binding studies shown in FIG. 3 (2 hrs at 4° C.) were […] to allow binding of ^125I-[…] to reach an apparent maximum, even at the lowest tracer concentrations, and to remove unbound material by washing quickly so that <10% of the cell-bound radioactivity dissociated.

Release of PMN myeloperoxidase activity (peroxidase generation assay) (human PMNs): released PMN myeloperoxidase activity | Competition for binding of 125I-RIGRIVTAKY to MPs by unlabelled peptide/protein (human MPs): inhibition
Sequence: ASRLDLRIGRIVTAKY [residues #6-20 from EMAP II, Cys to Arg substitution at position #15, and a C-terminal Tyr]
Induction of MP (mononuclear cell) migration (chemotaxis) ([1]; microchemotaxis chamber, 3 hrs at 37° C.): induce chemotaxis | MP migration at 100 pM peptide relative to FMLP at 1 μM ([1]; peptide 100 pM): similar

— patent publication US6734168B2, “Endothelial monocyte activating polypeptide II: a mediator which activates host response” (The Trustees of Columbia University in the City of New York, priority 1993, dated 2004)
